The results in this text go back to paper PMC8480782, “Efficient Dimerization Disruption of Leishmania infantum Trypanothione Reductase by Triazole-phenyl-thiazoles” (Journal of Medicinal Chemistry, 2021).

Read-outs that look alike come from different tables or passages of the source.

In general, IC50 refers to the point on the concentration scale where inhibition reaches its midpoint. As usually defined, the EC50 is the concentration at which the effect is half-maximal. A word on the inhibition: it is the percentage by which the read-out fell short of the control.

Test [1] has as its target T1, LiTryR (Leishmania infantum, UniProt A4HSF7).
T1 construct: HIS (N); made in house; host or cells: E. coli BL21 (DE3) Rossetta
As to the kind of experiment: biochemical. The test is classed as biochemical. The settings on record: for IC50: LiTryR, 1 μM TS2, maximum assayed 75 μM, read-out: IC50^act, TryR oxidoreductase activity. The method in brief:
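Recombinant HIS- or HIS-FLAG-tagged LiTryR (7 nM, E. coli-expressed) in DTNB-coupled assay at 26 °C, pH 7.5 HEPES with NADP+ 30 μM, DTNB 25 μM, NADPH 150 μM, TS2 1 μM, 1.75% DMSO. Reaction started with NADPH/TS2; TNB formation followed at 412 nm, data fitted by nonlinear regression.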

Test [2] concerns HepG2 cells. The experiment in a line: Cellular toxicity, crystal violet assay. The class given is cell-based. The settings on record: Homo sapiens, read-out: EC50 HepG2. The method in brief:
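HepG2 cells in DMEM with 10% FCS were exposed to compounds at 10^5 cells/mL for 24 h at 37 °C and 5% CO2. Remaining cells were stained with crystal violet, solubilized in 1% SDS and read at 570 nm. EC50 was obtained by nonlinear regression from triplicates in at least three independent experiments.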

Test [3] deals with T2, LiTryR dimer (Leishmania infantum, UniProt A4HSF7).
T2 construct: made in house; host or cells: E. coli BL21 (DE3) Rossetta (co-transformed with both plasmids)
T2 sequence (A4HSF7 1-491): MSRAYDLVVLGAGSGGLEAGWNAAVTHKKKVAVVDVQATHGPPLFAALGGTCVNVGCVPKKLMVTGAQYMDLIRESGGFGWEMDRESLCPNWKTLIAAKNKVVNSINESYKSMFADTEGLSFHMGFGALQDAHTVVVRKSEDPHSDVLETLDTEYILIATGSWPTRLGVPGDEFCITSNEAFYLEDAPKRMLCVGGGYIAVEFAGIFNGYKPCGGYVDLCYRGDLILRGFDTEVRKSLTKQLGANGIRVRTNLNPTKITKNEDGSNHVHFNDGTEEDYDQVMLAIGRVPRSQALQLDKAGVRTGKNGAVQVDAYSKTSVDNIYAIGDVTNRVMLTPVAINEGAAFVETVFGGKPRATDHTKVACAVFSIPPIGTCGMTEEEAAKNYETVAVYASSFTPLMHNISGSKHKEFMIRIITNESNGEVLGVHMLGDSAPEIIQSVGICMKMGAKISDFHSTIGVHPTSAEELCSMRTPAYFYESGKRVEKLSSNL
As to the kind of experiment: biochemical. The settings on record: for IC50: 400 nM LiTryR, 16 h at 37 °C, read-out: IC50^dim, LiTryR monomer displacement (dimer quantitation ELISA); for inhibition at 20 µM: read-out: Percentage of inhibition (dimerization) observed at 20 μM, 20 μM compound. (In general: In an ELISA, binding on a coated surface is turned into a signal by an enzyme label.)

Setting [4] is: HepG2, 24 h, crystal violet method.

T1 sequence (A4HSF7 1-491): as above

In the case of `NCCCCc1cn(-c2ccc(-c3nc(CCc4ccc5c(c4)CCCN5)cs3)c(OCCN3CCNC3=O)c2)nn1.O=C(O)C(F)(F)F.O=C(O)C(F)(F)F` [12q], the IC50 in test [1] was 6.9 ± 2.1 µM; in test [3] it was over 75 µM. In addition, the EC50 in test [2] (setting [4]) worked out at 43.3 ± 1 µM.

`NCCCCc1cn(-c2ccc(-c3nc(-c4cccc(-c5csc(-c6ccc(-n7cc(CCCCN)nn7)cc6OCCN6CCNC6=O)n5)c4)cs3)c(OCCN3CCNC3=O)c2)nn1.O=C(O)C(F)(F)F.O=C(O)C(F)(F)F` [compound 22, 1,1′-((((1,3-Phenylenebis(thiazole-4,2-diyl))bis(5-(4-(4-ammoniobutyl)-1H-1,2,3-triazol-1-yl)-2,1-phenylene))bis(oxy))bis(ethane-2,1-diyl))bis(imidazolidin-2-one)bis(2,2,2-trifluoroacetate)]: the IC50 in test [1] stood at 0.4 ± 0.03 µM; in test [3], 8 ± 0.2 µM. For the same compound, in test [1] (versus monomeric 12n), the “fold more potent than 12n, IC50^act” value is listed as 28 fold. Further, the EC50 in test [2] (setting [4]) was 30.5 ± 4.1 µM. Also, the “fold more potent than 12n, IC50^dim” value in test [3] (versus monomeric 12n) turned out to be 4 fold.

Take `NCCNCc1nccn1-c1ccc(-c2nc(CCc3ccc4ccccc4c3)cs2)c(OCCN2CCNC2=O)c1` [compound 2, reference compound]: the IC50 in test [1] amounted to 5.1 ± 0.4 µM. The EC50 in test [2] (setting [4]) amounted to 27.1 ± 2.4 µM. For the same compound, the inhibition at 20 µM in test [3] was about 30%.

With `NCCCCc1cn(-c2ccc(-c3nc(CCc4ccc(-c5ccccc5)cc4)cs3)c(OCCN3CCNC3=O)c2)nn1.O=C(O)C(F)(F)F` [12c, 1-(2-(2-(4-(2-([1,1′-Biphenyl]-4-yl)ethyl)thiazol-2-yl)-5-(4-(4-ammoniumbutyl)-1H-1,2,3-triazol-1-yl)phenoxy)ethyl)imidazolidin-2-one 2,2,2-Trifluoroacetate], the figures for the IC50 in test [1] and in test [3] were 10.9 ± 1.8 µM and 4.8 ± 0.6 µM, respectively. In addition, in test [2] (setting [4]), the EC50 is 43.1 ± 2.6 µM. For the same compound, in test [3], the inhibition at 20 µM turned out to be 78%.

Take `NCCCCc1cn(-c2ccc(-c3nc(-c4ccccc4)c(-c4ccccc4)s3)c(OCCN3CCNC3=O)c2)nn1.O=C(O)C(F)(F)F` [19a, 1-(2-(5-(4-(4-Ammoniobutyl)-1H-1,2,3-triazol-1-yl)-2-(4,5-diphenylthiazol-2-yl)phenoxy)ethyl)imidazolidin-2-one 2,2,2-Trifluoroacetate]: the IC50 in test [1] amounted to 4.3 ± 1 µM; in test [3], 7.1 ± 1.7 µM. The EC50 in test [2] (setting [4]) was 26.5 ± 4.1 µM.

For the compound `NCCCCc1cn(-c2ccc(-c3nc(CCc4ccc5ccccc5c4)cs3)c(OCCN3CCNC3=O)c2)nn1.O=C(O)C(F)(F)F` [12b, 1-(2-(5-(4-(4-Ammoniumbutyl)-1H-1,2,3-triazol-1-yl)-2-(4-(2-(naphthalen-2-yl)ethyl)thiazol-2-yl)phenoxy)ethyl)imidazolidin-2-one 2,2,2-Trifluoroacetate], the results for the IC50 in test [1] and in test [3] were 5.9 ± 1.1 µM and 7.1 ± 0.6 µM, respectively. The EC50 in test [2] (setting [4]) is 33.3 ± 2.7 µM. For the same compound, the inhibition at 20 µM in test [3] turned out to be 73%.

Regarding `NCCCCc1cn(-c2ccc(-c3nc(CCc4ccc5oc6ccccc6c5c4)cs3)c(OCCN3CCNC3=O)c2)nn1.O=C(O)C(F)(F)F` [12s], the half-maximal inhibitory concentration (IC50) in test [1] is 6.6 ± 1.9 µM; in test [3], 8.8 ± 0.2 µM. Besides, the EC50 in test [2] (HepG2, 24 h) was over 75 µM.

In the case of `NCCNCc1nccn1-c1ccc(-c2nc(CCc3ccc(-c4ccccc4)cc3)cs2)c(OCCN2CCNC2=O)c1` [compound 3, reference compound], in test [1], the IC50 was found to be 8.6 ± 1.4 µM. For the same compound, the EC50 in test [2] (setting [4]) worked out at 14.2 ± 0.9 µM. Also, in test [3], the inhibition at 20 µM is about 30%.

Turning to `NCCCc1cn(-c2ccc(-c3nc(CCc4ccc(-c5ccccc5)cc4)cs3)c(OCCN3CCNC3=O)c2)nn1.O=C(O)C(F)(F)F` [12i], the half-inhibitory concentration (IC50) worked out at 19.7 ± 3.8 µM in test [1] and 10.8 ± 0.1 µM in test [3]. In addition, the concentration for a half-maximal effect (EC50) in test [2] (setting [4]) came out at 60.4 ± 3 µM.

On to `NCCCCc1cn(-c2ccc(-c3nc(CCc4ccc5c(c4)CCO5)cs3)c(OCCN3CCNC3=O)c2)nn1.O=C(O)C(F)(F)F` [12r], for which the concentration for half-maximal inhibition (IC50) in test [1] stood at 11.9 ± 0.6 µM; in test [3], 10.7 ± 0.5 µM. Also, the EC50 in test [2] (setting [4]) was determined as 29.4 ± 0.7 µM.

Consider `NCCCCc1cn(-c2ccc(-c3nc(-c4ccc(Oc5ccccc5)cc4)c(-c4ccccc4)s3)c(OCCN3CCNC3=O)c2)nn1.O=C(O)C(F)(F)F` [19c, 1-(2-(5-(4-(4-Ammoniobutyl)-1H-1,2,3-triazol-1-yl)-2-(4-([4-phenyloxyphenyl]-1-yl)-5-phenylthiazol-2-yl)phenoxy)ethyl)imidazolidin-2-one 2,2,2-Trifluoroacetate], for which the figures for the IC50 in test [1] and in test [3] were 16.9 ± 2.7 µM and 9 ± 0.5 µM, respectively. The EC50 in test [2] (setting [4]) was at least 75 µM.

Turning to `NCCCCc1cn(-c2ccc(-c3nc(-c4ccccc4)cs3)c(OCCN3CCNC3=O)c2)nn1.O=C(O)C(F)(F)F` [12n], the half-inhibitory concentration (IC50) in test [1] was determined as 11.2 ± 0.2 µM; in test [3] it was 29 ± 1.5 µM. The EC50 in test [2] (setting [4]) was 16.4 ± 2.3 µM.
